Data taken from PMC2009665, “The bacterial mutation test. Six tests for carcinogenicity” (British Journal of Cancer, 1978).
Read-outs that look alike come from different tables or passages of the source.

Columns and labels:
[1] = tested on: Salmonella typhimurium TA 1538; conditions: cited from earlier work
[2] = tested on: Salmonella typhimurium TA 100; conditions: cited from earlier work
[3] = tested on: Salmonella typhimurium TA 1538
[4] = tested on: Salmonella typhimurium TA 100
[5] = tested on: Salmonella typhimurium TA 98
[6] = tested on: Salmonella typhimurium TA 1535; conditions: cited from earlier work
[7] = tested on: Salmonella typhimurium TA 1535
[8] = tested on: TA 1537; conditions: cited from earlier work
[9] = tested on: S. typhimurium; conditions: cited from earlier work
[10] = tested on: Salmonella typhimurium (TA 1535, TA 1538, TA 98 and TA 100)
[11] = tested on: Strain G46; conditions: cited from earlier work
[12] = tested on: Strain C 3076; conditions: cited from earlier work
[13] = tested on: Strain TA 1530; conditions: cited from earlier work
[14] = tested on: Salmonella typhimurium TA 98; conditions: cited from earlier work
[15] = tested on: Strain TA 1532; conditions: Lab 8; H induction method unknown; ref Green (1974); cited from earlier work
[16] = tested on: strain TA 1952; conditions: after induction of enzymes with BHT; ref Green, 1974; cited from earlier work
[17] = tested on: strain TA 1950; conditions: after induction of enzymes with BHT; ref Green, 1974; cited from earlier work

SMILES	Result on TA 1538 [3]	Result on TA 100 [4]	Result on TA 98 [5]	Result on TA 1535 [7]	Result on TA 1537 [8]	Result in the present study [10]	other results
Nc1ccc2cc3ccccc3cc2c1 [2-Aminoanthracene]	+	+					Result on TA 1538 [1]: +; Result on TA 100 [2]: +
Nc1ccc2ccccc2c1 [2-Naphthylamine]			-	+			Result on TA 1535 [6]: +
Nc1ccc(-c2ccccc2)cc1 [4-Aminobiphenyl]	+		+	-	+		
CN(C)c1ccc(N=Nc2ccccc2)cc1 [4-Dimethylaminoazobenzene]	+	+	+	+		positive	Result on TA 1538 [1]: +; Response in the plate incorporation assay ([9]; plate incorporation assay, ref Commoner et al. (1974)): unable to obtain a positive response
Nc1cc2c3ccccc3ccc2c2ccccc12 [6-Aminochrysene]			+	-	+		
Cc1c2ccccc2c(C)c2c1ccc1ccccc12 [9,10-Dimethyl-1,2-benzanthracene]							Maximum fold increase in Salmonella revertants above the concurrent negative-control values, TA 98 [5]: -; Concentration of the compound at which the maximum effect occurred, TA 1538 [3]: 2500; Maximum fold increase in Salmonella revertants above the concurrent negative-control values, TA 1538 [3]: 4 fold; Concentration of the compound at which the maximum effect occurred, TA 100 [4]: 2500; Maximum fold increase in Salmonella revertants above the concurrent negative-control values, TA 100 [4]: 5 fold; Test result (prediction of carcinogenicity from the test) [10]: +; Maximum fold increase in Salmonella revertants above the concurrent negative-control values, TA 1535 [7]: -
O=C1CCO1 [/3-Propiolactone]	+	+	-				Result on other strains: G46 [11]: 46+; Result on TA 100 [2]: +; Result on other strains: C 3076 [12]: 76+
CCN(CC)N=O [Diethylnitrosamine]						positive	Result on subsequent testing [10]: negative
CN(C)N=O [Dimethylnitrosamine]	-		-	-		negative	Result on other strains: TA 1530 ([13]; Lab 4, P Phenobarbital induction and S9 mix added, L tested in liquid culture, ref Bartsch et al. (1976)): 3+; Result on subsequent testing [10]: positive results have, on occasions
CCOS(C)(=O)=O [Ethyl methanesulphonate]	+	+	+	+		detected in all 4 strains	Result on other strains: G46 [11]: 46+; Result on TA 1535 [6]: +; Result on TA 100 [2]: +; Result on other strains: C 3076 [12]: 76+
CN(C)P(=O)(N(C)C)N(C)C [Hexamethylphosphoramide]	-		-				Result on TA 1538 [1]: -; Result on TA 98 [14]: -
NN [Hydrazine]	-	+	+	+	-		Result on other strains: TA 1530 ([13]; Lab 2, W no S9 mix, ref McCann et al. (1975) and references quoted therein): 3+; Result on TA 1538 [1]: -; Result on other strains: G46 [11]: 46+; Result on TA 1535 [6]: +
C=CCc1ccc2c(c1)OCO2 [Safrole]	-				-	positive	Result on other strains: TA 1532 [15]: 2+; Result on other strains: TA 1530 ([13]; Lab 8, H induction method unknown, ref Green (1974)): 3+; Result in host-mediated assay, strain TA 1952 [16]: positive; Result in host-mediated assay, strain TA 1950 [17]: positive
CCOC(N)=O [Urethane]	-		-	-	-		Result on TA 98 [14]: -; Result on TA 1535 [6]: -
C=CCl [Vinyl chloride]							Result dissolved in DMSO [9]: negative; Result when tested as a gas [9]: positive
